PubChem BioAssay AID2060503 (Molecular Pharmacology Branch, DTP, NCI, 2025)

System: 817829-284-R-J1-PDC complex spheroids, viability
Test: Anticancer human tumor 817829-284-R-J1-PDC patient-derived colon adenocarcinoma cell line growth inhibition [GQUAD]
Details: for IC50: curve of first compound; for viability, T/C: stronger effect = lower value; active = viability on the fitted dose curve at most 10% of control; inactive = the rest
Outline: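 Multi-cell-type spheroids of tumor cells with HUVEC and mesenchymal stem cells, treated with drug combinations. Concentrations descend in half-log steps from near clinical Cmax, or from 10 microM where Cmax is unknown; viability read-out.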

[1] = second compound 0.0316 µM, first compound 0.0316 µM
[2] = second compound 0.0316 µM, first compound 0.1 µM
[3] = second compound 0.0316 µM, first compound 0.316 µM
[4] = second compound 0.0316 µM, first compound 1 µM
[5] = second compound 0.0316 µM, first compound 3.16 µM
[6] = second compound 0.0316 µM, first compound 10 µM
[7] = second compound 0.1 µM, first compound 0.0316 µM
[8] = second compound 0.1 µM, first compound 0.1 µM
[9] = second compound 0.1 µM, first compound 0.316 µM
[10] = second compound 0.1 µM, first compound 1 µM
[11] = second compound 0.1 µM, first compound 3.16 µM
[12] = second compound 0.1 µM, first compound 10 µM
[13] = second compound 0.316 µM, first compound 0.0316 µM
[14] = second compound 0.316 µM, first compound 0.1 µM
[15] = second compound 0.316 µM, first compound 0.316 µM
[16] = second compound 0.316 µM, first compound 1 µM
[17] = second compound 0.316 µM, first compound 3.16 µM
[18] = second compound 0.316 µM, first compound 10 µM
[19] = second compound 1 µM, first compound 0.0316 µM
[20] = second compound 1 µM, first compound 0.1 µM
[21] = second compound 1 µM, first compound 0.316 µM
[22] = second compound 1 µM, first compound 1 µM
[23] = second compound 1 µM, first compound 3.16 µM
[24] = second compound 1 µM, first compound 10 µM
[25] = second compound 3.16 µM, first compound 0.0316 µM
[26] = second compound 3.16 µM, first compound 0.1 µM
[27] = second compound 3.16 µM, first compound 0.316 µM
[28] = second compound 3.16 µM, first compound 1 µM
[29] = second compound 3.16 µM, first compound 3.16 µM
[30] = second compound 3.16 µM, first compound 10 µM
[31] = second compound 10 µM, first compound 0.0316 µM
[32] = second compound 10 µM, first compound 0.1 µM
[33] = second compound 10 µM, first compound 0.316 µM
[34] = second compound 10 µM, first compound 1 µM
[35] = second compound 10 µM, first compound 3.16 µM
[36] = second compound 10 µM, first compound 10 µM
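Note: spheroids exposed to agents for 7 days before readout.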
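Throughout, for viability, T/C: percent viability relative to DMSO vehicle control taken as 100%.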

CC1COCCN1c1cc(-c2ccnn2C)c2ccnc(-c3ccn[nH]3)c2n1 (centres undefined) + Cc1cnc(CNC(=O)c2c(=O)c3ccc(N4CCCN(C)CC4)nc3n3c2sc2ccccc23)cn1
active: viability, T/C [3] 9.09% | viability, T/C [4] 7.06% | viability, T/C [5] 6.16% | viability, T/C [6] 4.96% | viability, T/C [9] 8.18% | viability, T/C [10] 6.54% | viability, T/C [11] 6.01% | viability, T/C [12] 3.97% | viability, T/C [15] 8.36% | viability, T/C [16] 6.17% | viability, T/C [17] 5.71% | viability, T/C [18] 4.08% | viability, T/C [21] 9.19% | viability, T/C [22] 6.22% | viability, T/C [23] 5.53% | viability, T/C [24] 3.34% | viability, T/C [27] 8.66% | viability, T/C [28] 6.72% | viability, T/C [29] 3.24% | viability, T/C [30] 2.62% | viability, T/C [31] 0.06% | viability, T/C [32] 0.09% | viability, T/C [33] 0.11% | viability, T/C [34] 0.08% | viability, T/C [35] 0.12% | viability, T/C [36] 0.12%
inactive: viability, T/C [1] 14.8% | viability, T/C [2] 9.78% | viability, T/C [7] 13.3% | viability, T/C [8] 11.1% | viability, T/C [13] 15% | viability, T/C [14] 11.9% | viability, T/C [19] 13.8% | viability, T/C [20] 14.1% | viability, T/C [25] 11.8% | viability, T/C [26] 12.1%
< 31.6 nM: IC50 (second compound 0.0316 µM) | IC50 (second compound 0.1 µM) | IC50 (second compound 0.316 µM) | IC50 (second compound 1 µM) | IC50 (second compound 3.16 µM) | IC50 (second compound 10 µM)

CC(C)(O)C1CCC(Nc2ccc3ncc(-c4cccc(C(F)(F)F)c4)n3n2)CC1 (centres undefined) + CN(C)c1ccc(Nc2c3ccc(NC(=O)CCN4CCCC4)cc3nc3cc(NC(=O)CCN4CCCC4)ccc23)cc1
active: viability, T/C [35] 5.62% | viability, T/C [36] 2.44%
1170 nM: IC50 (second compound 10 µM)
2100 nM: IC50 (second compound 3.16 µM)
2260 nM: IC50 (second compound 1 µM)
> 10000 nM: IC50 (second compound 0.0316 µM)
2570 nM: IC50 (second compound 0.316 µM)
3130 nM: IC50 (second compound 0.1 µM)
inactive: viability, T/C [1] 102% | viability, T/C [2] 100% | viability, T/C [3] 111% | viability, T/C [4] 88.4% | viability, T/C [5] 35.7% | viability, T/C [6] 64.8% | viability, T/C [7] 98% | viability, T/C [8] 101% | viability, T/C [9] 90.3% | viability, T/C [10] 95.9% | viability, T/C [11] 39.9% | viability, T/C [12] 59.2% | viability, T/C [13] 97.5% | viability, T/C [14] 97% | viability, T/C [15] 86.8% | viability, T/C [16] 97.1% | viability, T/C [17] 33.4% | viability, T/C [18] 47.3% | viability, T/C [19] 92.9% | viability, T/C [20] 103% | viability, T/C [21] 95.8% | viability, T/C [22] 93.5% | viability, T/C [23] 28.9% | viability, T/C [24] 35.1% | viability, T/C [25] 96.5% | viability, T/C [26] 97.3% | viability, T/C [27] 87.9% | viability, T/C [28] 83.3% | viability, T/C [29] 31.6% | viability, T/C [30] 23.2% | viability, T/C [31] 96% | viability, T/C [32] 102% | viability, T/C [33] 87.2% | viability, T/C [34] 58.5%
